Nine compounds from US20260317309A1, “N-HETEROCYLIC GPCR RECEPTOR AGONISTS, PHARMACEUTICAL COMPOSITIONS COMPRISING THE SAME, AND METHODS FOR THEIR USE” (Carmot Therapeutics, Inc., priority 2022, published 2026) can be followed below.

The EC50 is the midpoint of the concentration-response curve. A high value points to lower potency in that assay.

SMILES strings stand for the structures. Where only a bound is given, the exact number is not on record here.

For the assay, the target named is T1, human GLP-1 receptor (Homo sapiens, UniProt P43220).
T1 construct: expressed in transfected cells
T1 sequence (P43220 24-463): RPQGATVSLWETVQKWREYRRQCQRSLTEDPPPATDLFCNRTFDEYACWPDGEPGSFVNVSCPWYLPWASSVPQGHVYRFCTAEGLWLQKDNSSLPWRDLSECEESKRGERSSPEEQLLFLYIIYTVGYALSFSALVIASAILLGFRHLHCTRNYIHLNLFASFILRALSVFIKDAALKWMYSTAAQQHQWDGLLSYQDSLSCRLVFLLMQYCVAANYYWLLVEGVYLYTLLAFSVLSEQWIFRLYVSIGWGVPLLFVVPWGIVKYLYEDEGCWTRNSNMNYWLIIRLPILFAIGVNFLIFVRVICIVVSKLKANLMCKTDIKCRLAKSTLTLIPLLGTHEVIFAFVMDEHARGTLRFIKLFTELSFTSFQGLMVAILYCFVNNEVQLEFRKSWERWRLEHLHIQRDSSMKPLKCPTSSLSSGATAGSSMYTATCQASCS
Put plainly: GLP-1R cAMP assay (cAMP accumulation in CHO cells stably overexpressing the human GLP-1 receptor, HitHunter kit). The format is cell-based. As to conditions: CHO cells stably overexpressing human GLP-1R, 30 min, 20-point dose response in triplicate. The procedure:
CAMP accumulation was measured in Chinese hamster ovary (CHO) cells (10,000 cells/well) stably overexpressing the human GLP-1 receptor using the HitHunter CAMP Assay for Small Molecules Kit (Eurofins). Briefly, cells were grown in Ham's F12 Nutrient Mix with 10% FBS, and lifted with Cell Dissociation Buffer, Enzyme free, PBS based (ThermoFisher). Cells were pelleted, and resuspended in Hank's buffered saline solution with 10 mM HEPES, and 625 μM 3-isobutyl-1-methylxanthine. The anti-cAMP antibody reagent was then added to cells at a 1:2 ratio and 5 μL of mixture was seeded in 384-well small volume white assay plates, at 10,000 cells/well. Cells were then treated with 50 nL compound using an ECHO 550 acoustic dispenser (Labcyte) in a 20-point dose response format in triplicate for 30 min. Cells were then lysed, and detection reagents added according to the manufacturer's protocol. After overnight incubation, luminescence was measured using a Perkin Elmer Envision plate reader. Dose response curves were analyzed using GraphPad Prism 9.0.
In the Table, EC50 values are designated as follows: • A: 0 nM<EC50<0.1 nM; • B: 0.1 nM≤EC50<1.0 nM; • C: 1.0 nM≤EC50<10.0 nM; • D: 10.0 nM≤EC50<100 nM; • E: 100 nM≤EC50<500 nM; and • F: ≥500 nM
For orientation: cAMP levels reflect the balance of adenylyl cyclase and phosphodiesterase activity.
`C[C@H]1C[C@@H](Oc2ccnc(COc3ccc(F)cc3F)n2)CCN1Cc1nc2ccc(C(=O)O)cc2n1C[C@H]1CCOC1` [Compound 575, 2-{[(2S,4S)-4-({2-[(2,4-Difluorophenoxy)methyl]pyrimidin-4-yl}oxy)-2-methylpiperidin-1-yl]methyl}-1-{[(3R)-oxolan-3-yl]methyl}-1H-1,3-benzodiazole-6-carboxylic acid] yielded a concentration giving a half-maximal response (EC50) of 100 to 1000 pM. The value for `C[C@H](Cn1c(CN2CC[C@H](Oc3ccnc(COc4ncc(Cl)cc4F)n3)C[C@@H]2C)nc2ccc(C(=O)O)cc21)OC(F)F` [Compound 602, 2-{[(2S,4S)-4-[(2-{[(5-Chloro-3-fluoropyridin-2-yl)oxy]methyl}pyrimidin-4-yl)oxy]-2-methylpiperidin-1-yl]methyl}-1-[(2R)-2-(difluoromethoxy)propyl]-1H-1,3-benzodiazole-6-carboxylic acid] was 100 to 1000 pM; that for `C[C@H](Cn1c(CN2CC[C@H](Oc3ccnc(COc4ccc(F)cc4F)n3)C[C@@H]2C)nc2ccc(C(=O)O)cc21)OC1CC1` [Compound 618, 1-((R)-2-cyclopropoxypropyl)-2-(((2S,4S)-4-((2-((2,4-difluorophenoxy)methyl)pyrimidin-4-yl)oxy)-2-methylpiperidin-1-yl)methyl)-1H-benzo[d]imidazole-6-carboxylic acid] was 100 to 1000 pM.

Turning to `CC[C@H]1C[C@@H](Oc2ccnc(COc3ccc(C#N)cc3F)n2)CCN1Cc1nc2ccc(C(=O)O)cc2n1C[C@@H]1CCO1` [Compound 587, 2-{[(2S,4S)-4-({2-[(4-Cyano-2-fluorophenoxy)methyl]pyrimidin-4-yl}oxy)-2-ethylpiperidin-1-yl]methyl}-1-{[(2S)-oxetan-2-yl]methyl}-1H-1,3-benzodiazole-6-carboxylic acid], the 50% effective concentration (EC50) was < 100 pM. For the compound `CC(c1nc2ccc(C(=O)O)cc2n1C[C@@H](O)CCO)N1CC[C@H](Oc2ccnc(COc3ccc(F)cc3F)n2)C[C@@H]1C` (mixture of isomers) [Compound 569, 2-{1-[(2S,4S)-4-({2-[(2,4-difluorophenoxy)methyl]pyrimidin-4-yl}oxy)-2-methylpiperidin-1-yl]ethyl}-1-[(2S)-2,4-dihydroxybutyl]-1H-1,3-benzodiazole-6-carboxylic acid], the EC50 was ≥ 500000 pM. For `C[C@H]1C[C@@H](Oc2ccnc(COc3ccc(Cl)cn3)n2)CCN1Cc1nc2c(F)cc(C(=O)O)cc2n1C[C@@H]1CCO1` [Compound 603, 2-{[(2S,4S)-4-[(2-{[(5-Chloropyridin-2-yl)oxy]methyl}pyrimidin-4-yl)oxy]-2-methylpiperidin-1-yl]methyl}-4-fluoro-1-{[(2S)-oxetan-2-yl]methyl}-1H-1,3-benzodiazole-6-carboxylic acid], the EC50 was < 100 pM. Then `C[C@H]1C[C@@H](Oc2ccnc(COc3ncc(F)cc3F)n2)CCN1Cc1nc2ccc(C(=O)O)cc2n1C[C@@H]1CCCO1` [Compound 632, 2-(((2S,4S)-4-((2-(((3,5-Difluoropyridin-2-yl)oxy)methyl)pyrimidin-4-yl)oxy)-2-methylpiperidin-1-yl)methyl)-1-(((S)-tetrahydrofuran-2-yl)methyl)-1H-benzo[d]imidazole-6-carboxylic acid], with 100 to 1000 pM; and `C[C@H]1C[C@@H](Oc2ccnc(COc3ncc(F)cc3C#N)n2)CCN1Cc1nc2ccc(C(=O)O)cc2n1C[C@@H]1CCO1` [Compound 630, 2-(((2S,4S)-4-((2-(((3-Cyano-5-fluoropyridin-2-yl)oxy)methyl)pyrimidin-4-yl)oxy)-2-methylpiperidin-1-yl)methyl)-1-(((S)-oxetan-2-yl)methyl)-1H-benzo[d]imidazole-6-carboxylic acid], with 100 to 1000 pM; and `C[C@H]1C[C@@H](Oc2ccnc(NCc3ccc(F)cc3F)n2)CCN1Cc1nc2ccc(C(=O)O)cc2n1C[C@@H]1CCO1` [Compound 614, 2-(((2S,4S)-4-((2-((2,4-Difluorobenzyl)amino)pyrimidin-4-yl)oxy)-2-methylpiperidin-1-yl)methyl)-1-(((S)-oxetan-2-yl)methyl)-1H-benzo[d]imidazole-6-carboxylic acid], with 100 to 1000 pM.
